US9168259B2 (GRÜNENTHAL GMBH, priority 2010, dated 2015)
Where two headings read alike, the source gives them in different places.

Legend:
[1] = target: T1, KCNQ2/3 channels (Homo sapiens, UniProt O43525+O43526); assay: Fluorescence assay using a voltage sensitive dye (fluorimetry); type: cell-based
T1 construct: expressed in transfected cells

[2] = test system: rat; assay: Low-intensity tail flick test (rat); type: in vivo; conditions: po, peroral
Method: Method II. Low-Intensity Tail Flick Test (Rat)
In the low-intensity tail flick test, the determination of the antinociceptive effect of the compounds according to the invention towards an acute noxious thermal stimulus is carried out by measuring the withdrawal reflex of the rat tail (tail flick) in response to a radiant heat beam (analgesia meter; model 2011 of the company Rhema Labortechnik, Hofheim, Germany) according to the method described by D'Amour and Smith (J. Pharm. Exp. Ther. 72, 74 79 (1941). To this end, the rats were placed in a plexiglass restrainer, and a low-intensity radiant heat beam (48° C.) was focused onto the dorsal surface of the tail root. The stimulus intensity was adjusted to result in a mean pre-drug control withdrawal latency of about 7 s, thus also allowing a supraspinal modulation of the spinally mediated acute nociceptive reflex. A cutoff time of 30 s was applied to avoid tissue damage. Male Sprague-Dawley rats (Janvier, Le Genest St. Isle, Frankreich) with weights of 200-250 g were used. 10 rats were used per group. Before administration of a compound according to the invention, the animals were pre-tested twice in the course of five minutes and the mean of these measurements was calculated as the pre-test mean. The antinociceptive effect was determined at 20, 40 and 60 min after peroral compound administration. The antinociceptive effect was calculated based on the increase in the tail withdrawal latency according to the following formula and is expressed as percentage of the maximum possible effect (MPE [%]): MPE=[(T1−T0)/(T2−T0)]*100
In this, T0 is the control latency time before and T1 the latency time after administration of the compound, T2 is the cutoff time and MPE is the maximum possible effect. Employing variant analysis (repeated measures ANOVA) allowed testing of statistically significant differences between the compounds according to the invention and the vehicle group. The significance level was set to p≦0.05. To determine the dose dependency, the particular compound according to the invention was administered in 3-5 logarithmically increasing doses, including a threshold dose and a maximum effective dose, and the ED50 values were determined with the aid of regression analysis. The ED50 calculation was performed at the time of maximum efficacy (usually 20 min after administration of the compounds).

[3] = CHO-K1, plateau effect relative to saturated retigabine (50 μM) = 100%, CHO-K1 cells expressing KCNQ2/3, negative values = antagonistic, read-out: Fluorimetry % efficacy (retigabine = 100%)
[4] = CHO-K1 cells expressing KCNQ2/3, IC50 where % efficacy is negative, read-out: Fluorimetry EC50/IC50
[5] = MPE = % of maximum possible effect
[6] = CHO-K1, read-out: Fluorimetry % efficacy (retigabine = 100%)

T1 sequence (O43526 whole entry): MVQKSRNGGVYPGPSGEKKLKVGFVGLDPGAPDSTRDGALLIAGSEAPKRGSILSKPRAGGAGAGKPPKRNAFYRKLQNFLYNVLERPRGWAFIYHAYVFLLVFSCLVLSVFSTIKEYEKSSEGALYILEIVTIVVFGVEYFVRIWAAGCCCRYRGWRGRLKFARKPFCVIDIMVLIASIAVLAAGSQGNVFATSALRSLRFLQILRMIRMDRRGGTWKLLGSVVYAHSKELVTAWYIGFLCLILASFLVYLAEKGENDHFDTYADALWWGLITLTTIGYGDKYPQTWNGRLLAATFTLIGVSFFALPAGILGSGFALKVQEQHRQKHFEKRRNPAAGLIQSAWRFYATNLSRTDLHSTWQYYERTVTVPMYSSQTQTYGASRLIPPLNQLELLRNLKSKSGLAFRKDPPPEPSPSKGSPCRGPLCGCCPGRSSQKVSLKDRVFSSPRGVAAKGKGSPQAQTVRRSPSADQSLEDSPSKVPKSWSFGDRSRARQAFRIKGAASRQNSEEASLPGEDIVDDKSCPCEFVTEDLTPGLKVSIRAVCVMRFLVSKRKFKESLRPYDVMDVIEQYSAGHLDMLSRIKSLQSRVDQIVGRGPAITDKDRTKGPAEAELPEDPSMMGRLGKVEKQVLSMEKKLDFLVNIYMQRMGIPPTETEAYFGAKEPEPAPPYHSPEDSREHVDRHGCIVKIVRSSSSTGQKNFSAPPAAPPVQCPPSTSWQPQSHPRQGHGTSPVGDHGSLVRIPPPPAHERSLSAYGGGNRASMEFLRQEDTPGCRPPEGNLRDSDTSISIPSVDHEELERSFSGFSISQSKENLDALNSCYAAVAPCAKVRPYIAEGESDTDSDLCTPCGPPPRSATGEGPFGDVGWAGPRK
T1 sequence (O43525 whole entry): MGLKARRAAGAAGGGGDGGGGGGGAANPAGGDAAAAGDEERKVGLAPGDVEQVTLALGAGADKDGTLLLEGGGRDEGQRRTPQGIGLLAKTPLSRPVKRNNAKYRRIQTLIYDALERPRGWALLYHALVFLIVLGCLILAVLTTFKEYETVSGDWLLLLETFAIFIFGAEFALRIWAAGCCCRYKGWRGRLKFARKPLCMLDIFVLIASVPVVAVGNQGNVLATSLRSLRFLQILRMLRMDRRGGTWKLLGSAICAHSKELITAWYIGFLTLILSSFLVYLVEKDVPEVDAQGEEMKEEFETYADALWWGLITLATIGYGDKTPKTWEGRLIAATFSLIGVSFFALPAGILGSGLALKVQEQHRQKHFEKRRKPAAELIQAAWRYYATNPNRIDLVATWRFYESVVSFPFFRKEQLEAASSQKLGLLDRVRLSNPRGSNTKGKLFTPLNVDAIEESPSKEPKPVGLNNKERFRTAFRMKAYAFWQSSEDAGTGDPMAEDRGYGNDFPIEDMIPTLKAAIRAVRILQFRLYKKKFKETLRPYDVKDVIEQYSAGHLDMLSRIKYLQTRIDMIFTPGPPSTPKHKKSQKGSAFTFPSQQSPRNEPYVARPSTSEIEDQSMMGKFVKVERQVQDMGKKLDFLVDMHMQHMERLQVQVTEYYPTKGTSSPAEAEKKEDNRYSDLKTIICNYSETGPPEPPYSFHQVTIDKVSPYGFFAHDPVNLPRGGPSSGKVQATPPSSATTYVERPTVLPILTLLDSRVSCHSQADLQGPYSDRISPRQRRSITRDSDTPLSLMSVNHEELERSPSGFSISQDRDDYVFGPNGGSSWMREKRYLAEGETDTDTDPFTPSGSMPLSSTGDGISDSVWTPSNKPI

Row | SMILES | Emax [1, 3] [%] | EC50 [1, 4] [nM] | further results
1 | CCSc1nc(N2CCOCC2)cc(C)c1C(=O)NCc1cc(F)cc(F)c1 [Example 1, N-[(3,5-Difluoro-phenyl)-methyl]-2-ethylsulfanyl-4-methyl-6-morpholin-4-yl-pyridine-3-carboxylic acid amide] | 160 | 56 | inhibition in vivo at 4.64 mg/kg ([2]; dose 4.64 mg/kg, MPE = % of maximum possible effect): 78%
2 | CCSc1nc(N2CCOCC2)cc(C)c1C(=O)NCc1cccc(F)c1 [Example 2, 2-ethylsulfanyl-N-[(3-fluorophenyl)-methyl]-4-methyl-6-morpholin-4-yl-pyridine-3-carboxylic acid amide] | 171 | 134 | ED50 ([2]; ED50 at time of maximum efficacy): 4.3 mg/kg
3 | CCSc1nc(N2CCOCC2)cc(C)c1C(=O)NCc1ccc(F)cc1 [Example 4, 2-Ethylsulfanyl-N-[(4-fluorophenyl)-methyl]-4-methyl-6-morpholin-4-yl-pyridine-3-carboxylic acid amide] | 158 | 124 | inhibition in vivo at 10 mg/kg [2, 5]: 94%
4 | CCCc1nc(N2CCOCC2)cc(C)c1C(=O)NCc1cccc(F)c1 [Example 10, N-[(3-Fluorophenyl)-methyl]-4-methyl-6-morpholin-4-yl-2-propyl-pyridine-3-carboxylic acid amide] | 176 | 181 | inhibition in vivo at 10 mg/kg [2, 5]: 81%
5 | COc1nc(N2CCOCC2)cc(C)c1C(=O)NCc1cccc(F)c1 [Example 19, N-[(3-Fluorophenyl)-methyl]-2-methoxy-4-methyl-6-morpholin-4-yl-pyridine-3-carboxylic acid amide] | 155 | 736 | inhibition in vivo at 10 mg/kg [2, 5]: 79%
6 | CCOc1nc(N2CCOCC2)cc(C)c1C(=O)NCc1cccc(F)c1 [Example 38, 2-Ethoxy-N-[(3-fluorophenyl)-methyl]-4-methyl-6-morpholin-4-yl-pyridine-3-carboxylic acid amide] | 144 | 219 | inhibition in vivo at 10 mg/kg [2, 5]: 61%
7 | CSc1nc(N2CCOCC2)cc(C)c1C(=O)NCc1cccc(F)c1 [Example 40, N-[(3-Fluorophenyl)-methyl]-4-methyl-2-methylsulfanyl-6-morpholin-4-yl-pyridine-3-carboxylic acid amide] | 168 | 587 | inhibition in vivo at 10 mg/kg [2, 5]: 84%
8 | CCSc1nc(N2CCOCC2CCOC)cc(C)c1C(=O)NCc1cccc(F)c1 (stereo not shown) [Example 340, 2-Ethylsulfanyl-N-[(3-fluorophenyl)-methyl]-6-[3-(2-methoxy-ethyl)-morpholin-4-yl]-4-methyl-pyridine-3-carboxylic acid amide] | 152 | 274 | 
9 | CC(=O)N(C)c1nc(N2CCOCC2)cc(C)c1C(=O)NCc1cccc(F)c1 [Example 341, 2-(Acetyl-methyl-amino)-N-[(3-fluorophenyl)-methyl]-4-methyl-6-morpholin-4-yl-pyridine-3-carboxylic acid amide] | 22 |  | 
10 | CCSc1nc(N(CCOC)Cc2ccc(F)cc2)cc(C)c1C(=O)NCc1cccc(F)c1 [Example 342, 2-Ethylsulfanyl-N-[(3-fluorophenyl)-methyl]-6-[(4-fluorophenyl)-methyl-(2-methoxy-ethyl)-amino]-4-methyl-pyridine-3-carboxylic acid amide] | 124 | 291 | 
11 | CCSc1nc(N2CCOCC2)cc(C)c1C(=O)NCCCC1(C)COC1 [Example 343, 2-Ethylsulfanyl-4-methyl-N-[3-(3-methyl-oxetan-3-yl)-propyl]-6-morpholin-4-yl-pyridine-3-carboxylic acid amide] | 163 | 6840 | 
12 | CCSc1nc(N2CCOCC2)cc(C)c1C(=O)NCC#CC(C)(C)C [Example 344, N-(4,4-Dimethyl-pent-2-ynyl)-2-ethylsulfanyl-4-methyl-6-morpholin-4-yl-pyridine-3-carboxylic acid amide] | 253 | 41 | 
13 | CCSc1nc(N2C3CCC2COC3)cc(C)c1C(=O)NCc1cccc(F)c1 [Example 345, 2-Ethylsulfanyl-N-[(3-fluorophenyl)-methyl]-4-methyl-6-(3-oxa-8-azabicyclo[3.2.1]octan-8-yl)-pyridine-3-carboxylic acid amide] | 200 | 122 | 
14 | CCSc1nc(N2CCOCC2)cc(COC)c1C(=O)NCc1cccc(F)c1 [Example 346, 2-Ethylsulfanyl-N-[(3-fluorophenyl)-methyl]-4-(methoxymethyl)-6-morpholin-4-yl-pyridine-3-carboxylic acid amide] | 157 | 729 | 
15 | CCC(C)c1nc(N2CCOCC2)cc(C)c1C(=O)NCc1ccc(Cl)cc1 (stereo not shown) [Example 347, N-[(4-Chlorophenyl)-methyl]-4-methyl-2-(1-methyl-propyl)-6-morpholin-4-yl-pyridine-3-carboxylic acid amide] | 156 | 41 | 
16 | CCSc1nc(N2CCOCC2)cc(C)c1C(=O)NCCCC(C)(C)CC [Example 348, N-(4,4-Dimethyl-hexyl)-2-ethylsulfanyl-4-methyl-6-morpholin-4-yl-pyridine-3-carboxylic acid amide] | 228 | 22 | 
17 | COCCOc1nc(N2CCOCC2)cc(C)c1C(=O)NCCCC(C)(C)C [Example 349, N-(4,4-Dimethyl-pentyl)-2-(2-methoxy-ethoxy)-4-methyl-6-morpholin-4-yl-pyridine-3-carboxylic acid amide] | 216 | 284 | 
18 | CCSc1nc(N2CCOCC2)cc(C)c1C(=O)NCCCC1(C)CC1 [Example 350, 2-Ethylsulfanyl-4-methyl-N-[3-(1-methyl-cyclopropyl)-propyl]-6-morpholin-4-yl-pyridine-3-carboxylic acid amide] | 226 | 79 | 
19 | COCc1cc(CNC(=O)c2c(C)cc(N3CCOCC3)nc2C2CC2)ccc1F [Example 351, 2-Cyclopropyl-N-[[4-fluoro-3-(methoxymethyl)-phenyl]methyl]-4-methyl-6-morpholin-4-yl-pyridine-3-carboxylic acid amide] | 118 | 489 | 
20 | CCSc1nc(N2CCOC[C@H]2C)cc(C)c1C(=O)NCc1ccc(F)c(COC)c1 [Example 352, 2-Ethylsulfanyl-N-[[4-fluoro-3-(methoxymethyl)-phenyl]-methyl]-4-methyl-6-[(3R)-3-methyl-morpholin-4-yl]-pyridine-3-carboxylic acid amide] | 166 | 287 | 
21 | CCSc1nc(N2CCOCC2)cc(C)c1C(=O)NCc1ccc(F)c(CO)c1 [Example 353, 2-Ethylsulfanyl-N-[[4-fluoro-3-(hydroxymethyl)-phenyl]-methyl]-4-methyl-6-morpholin-4-yl-pyridine-3-carboxylic acid amide] | 46 |  | 
22 | COCCCc1nc(N2CCOCC2)cc(C)c1C(=O)NCCCC(C)(C)C [Example 354, N-(4,4-Dimethyl-pentyl)-2-(3-methoxy-propyl)-4-methyl-6-morpholin-4-yl-pyridine-3-carboxylic acid amide] | 204 | 1540 | 
23 | COCc1ccc(CNC(=O)c2c(C)cc(N3CCOCC3)nc2C2CC2)cc1F [Example 355, 2-Cyclopropyl-N-[[3-fluoro-4-(methoxymethyl)-phenyl]methyl]-4-methyl-6-morpholin-4-yl-pyridine-3-carboxylic acid amide] | 167 | 721 | 
24 | COCc1nc(N2CCOCC2)cc(C)c1C(=O)NCc1cccc(F)c1 [Example 356, N-[(3-Fluorophenyl)-methyl]-2-(methoxymethyl)-4-methyl-6-morpholin-4-yl-pyridine-3-carboxylic acid amide] | 140 | 6320 | 
25 | CC(C)c1cc(N2CCOCC2)nc(C(C)C)c1C(=O)NCc1ccc(Cl)cc1 [Example 357, N-[(4-Chlorophenyl)-methyl]-2,4-diisopropyl-6-morpholin-4-yl-pyridine-3-carboxylic acid amide] | 17 |  | 
26 | COCCc1nc(N2CCOCC2)cc(C)c1C(=O)NCCCC(C)(C)C [Example 358, N-(4,4-Dimethyl-pentyl)-2-(2-methoxy-ethyl)-4-methyl-6-morpholin-4-yl-pyridine-3-carboxylic acid amide] |  |  | EC50 [1]: 1130 nM; Emax [1, 6]: 234%
27 | CCc1cc(N2CCOCC2)nc(CC)c1C(=O)NCc1ccc(Cl)cc1 [Example 359, N-[(4-Chlorophenyl)-methyl]-2,4-diethyl-6-morpholin-4-yl-pyridine-3-carboxylic acid amide] |  |  | EC50 [1]: 237 nM; Emax [1, 6]: 141%
